From article PMC7269481, “ZN148 Is a Modular Synthetic Metallo-β-Lactamase Inhibitor That Reverses Carbapenem Resistance in Gram-Negative Pathogens In Vivo” (Antimicrobial Agents and Chemotherapy, 2020)
pIC50: −log10 of the molar value. Converted amounts (≈) assume the structure as drawn.

Tests used:
HepG2 cells = assay: In vitro toxicity, alamarBlue viability; assay type: cell-based, human; details: Homo sapiens, HepG2, 24 h
Procedure: The human hepatoblastoma HepG2 cell line (HB-8065; ATCC, Manassas, VA) was cultured in DMEM-GlutaMAX (5.5 mM glucose; Thermo Fisher) supplemented with 10% fetal bovine serum (Sigma-Aldrich), streptomycin (100 μg/ml; Gibco/Thermo Fisher), and penicillin (100 U/ml; Gibco/Thermo Fisher) at 37°C in 5% CO2. For viability assays, cells were seeded in white 96-well Nunclon plates (Sigma-Aldrich) at a density of 20,000 cells/well and left overnight to adhere. ZN148 and TPA (Sigma-Aldrich, Darmstadt, Germany) dissolved in dimethyl sulfoxide (DMSO; (Sigma-Aldrich) were added to the white 96-well plates containing 20,000 HepG2 cells/well at concentrations ranging from 1 to 1 × 10^−3 mM (a DMSO concentration kept below 1%), followed by incubation for 24 h at 37°C in 5% CO2. After 24 h, alamarBlue cell viability reagent (Thermo Fisher, Carlsbad, CA) was added (10% final concentration), followed by incubation for 4 h at 37°C. The proportion of viable cells in each well was measured in a fluorescence plate reader (Clariostar; BMGlabtech, Germany) at excitation 550 nm/emission 603 nm ([56]). Data from eight replicates were fitted by nonlinear regression to determine IC50 values using Prism (GraphPad Software, Inc.).

[1] = Solubility measurement in PBS; assay type: physicochemical
Procedure: The solubility of ZN148 was evaluated in PBS buffer at pH 7.4. Increasing amounts of ZN148 was dissolved in 1.0 ml at room temperature by gentle swirling of the solution in a glass vial. A total of 1.225 g of ZN148 was successfully dissolved in 1.0 ml of PBS buffer, giving a total volume of 1.8 ml. This solution was stable at 4°C for more than 6 weeks without precipitation.

VIM-2 = target: T1, VIM-2 (Escherichia coli, UniProt Q5U7L7); assay type: biochemical
T1 construct: made in house
Procedure: For reversibility of enzyme activity after incubation with ZN148, 3 ml of VIM-2 or NDM-1 was diluted with or without ZN148 in Chelex HEPES buffer (pH 7.5) and subsequently incubated for 1 h on ice. Then, 2.5 ml of each solution was loaded onto an equilibrated PD-10 column (GE Healthcare, Pittsburgh, PA), washed with 1 ml, and eluted with 1.5 ml of Chelex HEPES buffer (pH 7.5), respectively. Samples spiked and not spiked with inhibitor were diluted to a final enzyme concentration of 1 nM VIM-2 and 3 nM NDM-1. The initial reaction velocity was determined by adding nitrocefin (Merck) for VIM-2 or imipenem (Sigma-Aldrich) for NDM-1 at final concentrations of 50 and 100 μM, respectively. The initial enzyme reactions were recorded at 25°C. Inhibitor and enzyme alone were included as controls. All measurements were performed at least in duplicates. For enzyme restorability, pre- and postcolumn samples were supplemented with ZnSO4 (Sigma-Aldrich) to a final concentration of 100 μM and allowed to incubate for 5 min at 25°C. The initial enzyme velocity was then determined as described above.

E. coli with IMP (n=3) = assay: Meropenem MIC distribution, E. coli with IMP; assay type: cell-based; details: MEM alone or +50 µM ZN148
Procedure: MICs of carbapenems alone and in combination with inhibitors were determined by broth microdilution according to the Clinical and Laboratory Standards Institute (CLSI) guidelines ([48]) using either premade plates (TREK Diagnostic Systems/Thermo Fisher Scientific, East Grinstead, United Kingdom) with meropenem or in-house-prepared plates with meropenem, imipenem, and doripenem. ZN148 and other inhibitors were tested at a fixed concentration of 50 μM. Cation-adjusted Mueller-Hinton medium (TREK Diagnostic Systems/Thermo Fisher Scientific; Becton Dickinson, Franklin Lakes, NJ) were used as growth medium. The plates were incubated for 20 h at 37°C. ZN148, ZN222, ZN223, ZN228, and TPA were initially tested in combination with meropenem using two indicator strains: NDM-1-producing K. pneumoniae ([49], [50]) and VIM-2-producing P. aeruginosa ([51]). […]

[2] = tested on: K. pneumoniae with NDM (n=95); assay: Meropenem MIC distribution, K. pneumoniae with NDM; assay type: cell-based; details: MEM alone or +50 µM ZN148
Procedure: (§1) MICs of carbapenems alone and in combination with inhibitors were determined by broth microdilution according to the Clinical and Laboratory Standards Institute (CLSI) guidelines ([48]) using either premade plates (TREK Diagnostic Systems/Thermo Fisher Scientific, East Grinstead, United Kingdom) with meropenem or in-house-prepared plates with meropenem, imipenem, and doripenem. ZN148 and other inhibitors were tested at a fixed concentration of 50 μM. Cation-adjusted Mueller-Hinton medium (TREK Diagnostic Systems/Thermo Fisher Scientific; Becton Dickinson, Franklin Lakes, NJ) were used as growth medium. The plates were incubated for 20 h at 37°C. ZN148, ZN222, ZN223, ZN228, and TPA were initially tested in combination with meropenem using two indicator strains: NDM-1-producing K. pneumoniae ([49], [50]) and VIM-2-producing P. aeruginosa ([51]). The activity of ZN148 were subsequently tested against two extended strain collections: (i) in combination with meropenem against MBL-producing Enterobacterales (n = 62), MBL-producing P. aeruginosa (n = 9) and MBL- and class D carbapenemase-coproducing Enterobacterales (n = 5) from the strain collection at the Norwegian National Advisory Unit on Detection of Antimicrobial Resistance and (ii) in combination with meropenem, imipenem, and doripenem against globally collected MBL-producing E. coli (n = 87), K. pneumoniae (n = 85), P. aeruginosa (n = 52), and A. baumannii (n = 6), MBL- and class A/D carbapenemase-coproducing E. coli (n = 11), K. pneumoniae (n = 15) and A. baumannii (n = 7) at IHMA Europe, Sàrl, Switzerland. E. coli ATCC 25922 and P. aeruginosa ATCC 27853 were used as quality control strains. The MBL inhibitors were also tested for intrinsic antibacterial activity against the strains.

[3] = tested on: K. pneumoniae with VIM (n=17); assay: Meropenem MIC distribution, K. pneumoniae with VIM; assay type: cell-based; details: MEM alone or +50 µM ZN148
Procedure: as §1

[4] = tested on: Other Enterobacterales with MBLs (n=10); assay: Meropenem MIC distribution, other Enterobacterales with MBLs; assay type: cell-based; details: MEM alone or +50 µM ZN148
Procedure: as §1

CN(C[C@H](O)[C@@H](O)[C@H](O)[C@H](O)CO)C(=O)c1ccc(CN(Cc2ccccn2)Cc2ccccn2)nc1 [ZN148]
pIC50 (HepG2 cells): < 4.00 | solubility ([1]; PBS buffer, pH 7.4, aqueous buffer, thermodynamic from solid, in phosphate-buffered saline [PBS]): 1220 mg/mL (≈ 2390 mM) | stability of the solution without precipitation ([1]; at 4°C, 1.225 g in 1.0 ml PBS): more than 6 weeks | amount dissolved in 1.0 ml of PBS buffer ([1]; pH 7.4, room temperature, total volume 1.8 ml): 1.225 g | mode of inhibition (VIM-2): irreversible | MBL activity restored by addition of exogenous zinc, compared to untreated control (VIM-2; after incubation with inhibitor and its removal (PD-10), 100 μM ZnSO4): ~30%

C[C@@H](O)[C@H]1C(=O)N2C(C(=O)O)=C(S[C@@H]3CN[C@H](C(=O)N(C)C)C3)[C@H](C)[C@H]12 [meropenem]
No. of strains with indicated MIC (E. coli with IMP (n=3); MIC 4 mg/L): 1 | No. of strains with indicated MIC (E. coli with IMP (n=3); MIC 16 mg/L): 2 | No. of strains with indicated MIC ([2]; MIC 2 mg/L): 1 | No. of strains with indicated MIC ([2]; MIC 8 mg/L): 1 | No. of strains with indicated MIC ([2]; MIC 16 mg/L): 3 | No. of strains with indicated MIC ([2]; MIC 32 mg/L): 10 | No. of strains with indicated MIC ([2]; MIC ≥64 mg/L): 80 | No. of strains with indicated MIC ([3]; MIC 2 mg/L): 2 | No. of strains with indicated MIC ([3]; MIC 4 mg/L): 2 | No. of strains with indicated MIC ([3]; MIC 8 mg/L): 1 | No. of strains with indicated MIC ([3]; MIC 16 mg/L): 4 | No. of strains with indicated MIC ([3]; MIC 32 mg/L): 3 | No. of strains with indicated MIC ([3]; MIC ≥64 mg/L): 5 | No. of strains with indicated MIC ([4]; MIC 4 mg/L): 1 | No. of strains with indicated MIC ([4]; MIC 8 mg/L): 2 | No. of strains with indicated MIC ([4]; MIC 16 mg/L): 3 | No. of strains with indicated MIC ([4]; MIC 32 mg/L): 2 | No. of strains with indicated MIC ([4]; MIC ≥64 mg/L): 2
